Results published in patent US20200147116A1, “Use of Paeoniflorin-6'-O-benzenesulfonate in treatment of Sjögren's syndrome” (NINGBO ZHIMING BIOTECHNOLOGY CO., LTD., priority 2017, published 2020).
Where “and” joins values, the source holds several entries; their conditions need not be identical. Identical values can stand only once. Marks after values point to notes of the source that are not given here.

Experiments:
Format in all cases: in vivo
[1] = test system: Sjögren's syndrome model mice (C57BL/6 female mice); test: Saliva amount in induced Sjögren's syndrome model mice (wet weight method after pilocarpine); conditions: for Saliva amount in SS mice, Pre-administration / Saliva amount, Pre-administration: baseline before administration; for Saliva amount, One week after: one week of administration; for Curative effect judged on saliva amount after one week of medication: high dose of CP-25, TGP, Pae, HCQ at the doses of Table 3
Experimental: […] Water intake, saliva amount and submaxillary gland pathological analysis and score were determined respectively, on the day before administration, the 7th day and 14th day after administration. The therapeutic effects of CP-25 on Sjögren's syndrome were evaluated by comparison of changes of each index before and after treatment. 2 Sjögren's syndrome model mice: C57BL/6 female mice housed in a SPF environment with successful modeling (The animal model was made via repeated multi-point intracutaneous injection of submaxillary gland homogenate of homologous mice to tail and back of mice). The animal model was made via repeated multi-point intracutaneously injection of submaxillary gland homogenate of homologous mice to tail and back of mice, and the mice with successful modeling were randomly assigned to each group according to comprehensive conditions of mice. At the same time, the average weight and status of each group of mice should be as close as possible. […] […] High dose of said pharmaceutical should be incubated for half an hour before use. Before measurement, mice were anesthetized via intraperitoneal injection of 0.05 ml of 2.4% pentobarbital sodium, and the satisfactory anesthesia was smooth breathing, corneal reflex disappearance and limb muscle relaxation. After complete anesthesia, a mouse was placed in slightly tilted trendelenburg position, and its body was kept warm using the heater. The mouse was injected intraperitoneally with 0.1 ml of 0.025 mg/ml Pilocarpine, and 5 min later, a weighed cotton ball was placed in the mouth of the mouse for 10 min. After taking the ball out, the saliva weight of mice was measured by the wet weight method.

[2] = test system: submaxillary gland in SS mice; test: Histopathological examination and grading of submaxillary gland in SS mice (H&E, Chisholm-Mason scale); conditions: two weeks of administration, four mice of each group
Experimental: (§1) Mice were sacrificed after two weeks of administration, and then submaxillary glands of four mice of each group were removed and pathologically observed. At first, the submaxillary gland should be fixed in 10% buffered formalin for 24 h, followed by washing, dehydration and clearing, wax-filling, embedding, sectioning and finally H&E staining. […] Results were graded pathologically.
(§2) Note: The histological findings graded of submaxillary glands according to the Chisholm-Mason scale; grade 0, absence of lymphocytic infiltration; grade I, slight lymphocytic infiltration; grade II, moderate lymphocytic infiltration; grade III, one focus of lymphocytic infiltration per 4 mm^2 tissue; grade IV, more than one focus of lymphocytic infiltration per 4 mm^2 tissue (Note: One focus of lymphocytic infiltration has been defined as an aggregate of 50 or more lymphocytes gathered in the labial gland stroma per 4 mm^2 of tissue.

[3] = test system: NOD mice; test: Saliva amount in NOD mice; conditions: NOD mice; for Saliva amount in NOD mice, Pre-administration: baseline before administration
Experimental: Before measurement, mice were anesthetized via intraperitoneal injection of 0.05 ml of 2.4% pentobarbital sodium, and the satisfactory anesthesia was smooth breathing, corneal reflex disappearance and limb muscle relaxation. After complete anesthesia, a mouse was placed in slightly tilted trendelenburg position, and its body was kept warm using the heater. The mouse was injected intraperitoneally with 0.1 ml of 0.025 mg/ml Pilocarpine, and 5 min later, a weighed cotton ball was placed in the mouth of the mouse for 10 min. After taking the ball out, the saliva weight of mice was measured by the wet weight method.
Therapeutic effects of on Sjögren's syndrome CP-25 in NOD mice.

[4] = test system: submaxillary glands in NOD mice; test: Pathological grading of submaxillary glands in NOD mice; conditions: NOD mice
Experimental: as §1, §2

[5] = test system: SS mice; test: Organic indexes (spleen, submaxillary gland, thymus) in SS mice; conditions: 70 mg/kg
Source text: 2 Sjögren's syndrome model mice: C57BL/6 female mice housed in a SPF environment with successful modeling (The animal model was made via repeated multi-point intracutaneous injection of submaxillary gland homogenate of homologous mice to tail and back of mice). The animal model was made via repeated multi-point intracutaneously injection of submaxillary gland homogenate of homologous mice to tail and back of mice, and the mice with successful modeling were randomly assigned to each group according to comprehensive conditions of mice. At the same time, the average weight and status of each group of mice should be as close as possible. Paeoniflorin-6′-O-benzenesulfonate, white crystalline powder, purity 98.5%, was dissolved in trace ethanol (75 mg of CP-25 was soluble in 40 μl of ethanol), and then sodium carboxymethylcellulose was added to formulate a suspension of CP-25. Corresponding dose gradient, low dose (17.5 mg/kg), medium dose (35 mg/kg) and high dose (70 mg/kg) of said pharmaceutical should be prepared before medication, stored in 4° C. refrigerator for use. High dose of said pharmaceutical should be incubated for half an hour before use.

[6] = test system: NOD model mice; test: Organic indexes (spleen, submaxillary gland, thymus) in NOD model mice; conditions: 70 mg/kg

CCN(CCO)CCCC(C)Nc1ccnc2cc(Cl)ccc12 (stereo not shown) [HCQ, hydroxychloroquine, reference compound]
Saliva amount in SS mice, One week after administration ([1]; Example 1, C57BL/6 SS mice, 80 mg/kg): 18.17 ± 3.65 mg/each mouse/10 min | Saliva amount in SS mice, Pre-administration ([1]; Example 1, C57BL/6 SS mice, dose group 80 mg/kg): 23.17 ± 2.79 mg/each mouse/10 min | Saliva amount, One week after ([1]; SS model mice, 80 mg/kg): 18.17 ± 3.65 mg/10 min | Saliva amount, Pre-administration ([1]; SS model mice, dose group 80 mg/kg): 23.17 ± 2.79 mg/10 min | Curative effect judged on saliva amount after one week of medication ([1]; SS model mice): did not show apparent effect | Score: mice with submaxillary gland pathology Grade 0 ([2]; 80 mg/kg): 0 | Score: mice with submaxillary gland pathology Grade I ([2]; 80 mg/kg): 0 | Score: mice with submaxillary gland pathology Grade II ([2]; 80 mg/kg): 0 | Score: mice with submaxillary gland pathology Grade III ([2]; 80 mg/kg): 3 | Score: mice with submaxillary gland pathology Grade IV ([2]; 80 mg/kg): 1^# | Saliva amount in NOD mice, One week after administration ([3]; 80 mg/kg): 17.00 ± 1.61 mg/each mouse/10 min | Saliva amount in NOD mice, Two weeks after administration ([3]; 80 mg/kg): 17.00 ± 1.41 mg/each mouse/10 min | Saliva amount in NOD mice, Pre-administration ([3]; dose group 80 mg/kg): 19.17 ± 3.18 mg/each mouse/10 min | Score: mice with submaxillary gland pathology Grade 0 ([4]; 80 mg/kg): 0 | Score: mice with submaxillary gland pathology Grade I ([4]; 80 mg/kg): 0 | Score: mice with submaxillary gland pathology Grade II ([4]; 80 mg/kg): 0 | Score: mice with submaxillary gland pathology Grade III ([4]; 80 mg/kg): 3 | Score: mice with submaxillary gland pathology Grade IV ([4]; 80 mg/kg): 1 ^#

C[C@@]12C[C@@]3(O)O[C@@H](O1)[C@]1(COC(=O)c4ccccc4)[C@H]3C[C@@]12O[C@@H]1O[C@H](CO)[C@@H](O)[C@H](O)[C@H]1O [Pae, Paeoniflorin]
Saliva amount in SS mice, One week after administration ([1]; Example 1, C57BL/6 SS mice, 70 mg/kg): 17.01 ± 2.10 mg/each mouse/10 min | Saliva amount in SS mice, Two weeks after administration ([1]; Example 1, C57BL/6 SS mice, 70 mg/kg, two weeks): 17.17 ± 2.72^ mg/each mouse/10 min | Saliva amount in SS mice, Pre-administration ([1]; Example 1, C57BL/6 SS mice, dose group 70 mg/kg): 23.50 ± 2.89 mg/each mouse/10 min | Saliva amount, One week after ([1]; SS model mice, 70 mg/kg): 17.01 ± 2.10 mg/10 min | Saliva amount, Two weeks after ([1]; SS model mice, 70 mg/kg, two weeks of administration): 17.17 ± 2.72^ mg/10 min | Saliva amount, Pre-administration ([1]; SS model mice, dose group 70 mg/kg): 23.50 ± 2.89 mg/10 min | Curative effect judged on saliva amount after one week of medication ([1]; SS model mice): did not show apparent effect | Spleen index [5]: 9.15 ± 1.44 mg/g | Submaxillary gland index [5]: 3.71 ± 0.68 mg/g | Thymus index [5]: 0.85 ± 0.23 mg/g | Score: mice with submaxillary gland pathology Grade 0 ([2]; 70 mg/kg): 0 | Score: mice with submaxillary gland pathology Grade I ([2]; 70 mg/kg): 0 | Score: mice with submaxillary gland pathology Grade II ([2]; 70 mg/kg): 0 | Score: mice with submaxillary gland pathology Grade III ([2]; 70 mg/kg, 70 mg/kg): 2 and 1 | Saliva amount in NOD mice, One week after administration ([3]; 70 mg/kg): 15.40 ± 1.62 mg/each mouse/10 min | Saliva amount in NOD mice, Two weeks after administration ([3]; 70 mg/kg): 14.75 ± 1.25 mg/each mouse/10 min | Saliva amount in NOD mice, Pre-administration ([3]; dose group 70 mg/kg): 19.83 ± 1.94 mg/each mouse/10 min | Spleen index [6]: 5.3 ± 0.5 mg/g | Submaxillary gland index [6]: 4.5 ± 0.5^ mg/g | Thymus index [6]: 1.0 ± 0.1 mg/g | Score: mice with submaxillary gland pathology Grade 0 ([4]; 70 mg/kg): 0 | Score: mice with submaxillary gland pathology Grade I ([4]; 70 mg/kg): 0 | Score: mice with submaxillary gland pathology Grade II ([4]; 70 mg/kg): 0 | Score: mice with submaxillary gland pathology Grade III ([4]; 70 mg/kg): 1 | Score: mice with submaxillary gland pathology Grade IV ([4]; 70 mg/kg): 3
